According to publication PMC7251097, “Aspartate/asparagine-β-hydroxylase: a high-throughput mass spectrometric assay for discovery of small molecule inhibitors” (Scientific Reports, 2020):
Counter-ions that a name gives are not always drawn. Like-named read-outs stand apart in the source and are kept apart here. Blank lines part the entries; values can stand above or below the molecule they belong to.

Target: T1, His6-AspH315–758 (human aspartate/asparagine-β-hydroxylase, AspH) (Homo sapiens, UniProt Q12797)
T1 construct: N-Terminally His6-tagged human AspH315–758 (His6-AspH315–758) was produced in E. coli BL21 (DE3) cells; made in house; host or cells: E. coli BL21 (DE3), pET-28a(+) vector
T1 sequence (Q12797 315-758): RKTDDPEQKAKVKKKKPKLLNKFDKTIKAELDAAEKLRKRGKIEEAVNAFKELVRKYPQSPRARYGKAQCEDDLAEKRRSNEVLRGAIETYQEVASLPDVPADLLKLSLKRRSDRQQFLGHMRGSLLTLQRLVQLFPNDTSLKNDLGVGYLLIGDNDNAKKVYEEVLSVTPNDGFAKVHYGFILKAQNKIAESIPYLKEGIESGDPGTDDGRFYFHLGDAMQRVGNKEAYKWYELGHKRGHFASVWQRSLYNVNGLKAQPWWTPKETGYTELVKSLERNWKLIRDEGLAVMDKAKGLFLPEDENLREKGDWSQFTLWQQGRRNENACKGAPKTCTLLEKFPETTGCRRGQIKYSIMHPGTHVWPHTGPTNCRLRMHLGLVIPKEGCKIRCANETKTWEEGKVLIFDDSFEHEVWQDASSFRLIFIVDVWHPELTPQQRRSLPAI
Assay: SPE-MS AspH inhibition assay (LOPAC screen at fixed 20 μM and IC50 dose-response), hydroxylation of cyclic peptide hFX-CP101–119
Format: biochemical
Settings: for Plate 5 (% conversion): mean conversion DMSO 32.88; for % inhibition / % conversion: LOPAC Plate 4, compound at 20 uM

[1] = LOPAC compound at 20uM, plate 2, conversion of substrate peptide
[2] = LOPAC compound at 20uM, plate 2, normalised to DMSO and 2,4-PDCA controls
[3] = read-out: Plate 2 (% inhibition)
[4] = LOPAC compound at 20uM, plate 2, normalised to DMSO and 2,4-PDCA controls, read-out: Plate 2 (% inhibition)
[5] = plate 5 (Pfitzer), test compounds at fixed 20 μM
[6] = LOPAC compound at 20uM, conversion of substrate peptide

SMILES: O=C(O)CN(CCN(CC(=O)O)CC(=O)O)CCN(CC(=O)O)CC(=O)O [Diethylenetriaminepentaacetic acid, reference compound]
Inhibition at 20 µM [%] (AspH activity, fixed compound concentration 20 μM, initial LOPAC screen, 0.5%v/v DMSO): 100.3% | Plate 2 (% conversion) [1]: 2.39% | Plate 2 (% inhibition) [2]: 100.26%

SMILES: CN1C[C@H](C(=O)N[C@]2(C)O[C@@]3(O)[C@@H]4CCCN4C(=O)[C@H](Cc4ccccc4)N3C2=O)C[C@@H]2c3cccc4[nH]cc(c34)C[C@H]21 [Dihydroergotamine methanesulfonate]
Plate 2 (% conversion): 37.10% | inhibition at 20 µM [3]: -3.42%

SMILES: CC(C)[C@H]1CN[C@H](C(=O)O)[C@H]1CC(=O)O [Dihydrokainic acid]
Plate 2 (% conversion): 34.38% | Plate 2 (% inhibition) (20 µM): 4.72%

SMILES: C[C@@H]1O[C@@H](O[C@H]2C[C@@H](O)[C@]3(CO)[C@H]4[C@H](O)C[C@]5(C)[C@@H]([C@@H]6COC(=O)C6)CC[C@]5(O)[C@@H]4CC[C@]3(O)C2)[C@H](O)[C@H](O)[C@H]1O [Dihydroouabain]
Plate 2 (% conversion): 38.16% | Plate 2 (% inhibition) (20 µM): -6.59%

SMILES: COc1cc(C(=O)OCCCN2CCCN(CCCOC(=O)c3cc(OC)c(OC)c(OC)c3)CC2)cc(OC)c1OC [Dilazep hydrochloride]
Plate 2 (% conversion) [1]: 41.49% | inhibition at 20 µM [4]: -16.5%

SMILES: c1ccc2c(c1)[I+]c1ccccc1-2 [Diphenyleneiodonium chloride]
Plate 2 (% conversion): 35.66% | inhibition at 20 µM [3]: 0.88%

SMILES: CCCN(CCC)CCc1ccc(O)c(O)c1 [Dipropyldopamine hydrobromide]
Plate 2 (% conversion): 10.27% | inhibition at 20 µM [3]: 76.7%

SMILES: OCCN(CCO)c1nc(N2CCCCC2)c2nc(N(CCO)CCO)nc(N3CCCCC3)c2n1 [Dipyridamole]
Plate 2 (% conversion) [1]: 42.60% | inhibition at 20 µM [4]: -19.9%

SMILES: CS(=O)(=O)O.O.O=C(OC1C[C@@H]2CC3C[C@H](C1)N2CC3=O)c1c[nH]c2ccccc12 (stereo partly drawn) [Dolasetron mesylate hydrate]
% inhibition: -4.53% | % conversion (substrate conversion): 38.02%

SMILES: Cl.N#Cc1ccc(N2CCN(C(=O)COc3ccc4[nH]cc(CCN)c4c3)CC2)cc1 [Donitriptan monohydrochloride]
Plate 2 (% conversion) [1]: 23.20% | Plate 2 (% inhibition) [2]: 38.09%

SMILES: COc1cc2nc(N3CCN(C(=O)C4COc5ccccc5O4)CC3)nc(N)c2cc1OC (stereo not drawn) [Doxazosin mesylate]
Plate 2 (% conversion) [1]: 41.90% | inhibition at 20 µM [4]: -17.8%

SMILES: Cc1cc(Cl)ccc1OCCCC(=O)NO [Droxinostat]
Plate 1 (% inhibition) (LOPAC compound at fixed 20 uM, plate 1, normalised to DMSO and 2,4-PDCA controls): 1.86% | Plate 1 (% conversion) (LOPAC compound at fixed 20 uM, substrate conversion, plate 1): 35.25%

SMILES: O=C(O)CN(CCOCCOCCN(CC(=O)O)CC(=O)O)CC(=O)O [EGTA]
Plate 2 (% conversion) [1]: 38.29% | Plate 2 (% inhibition) [2]: -6.96%

SMILES: C=Cc1cc(O)cc2nc(-c3ccc(O)c(F)c3)oc12 [ERB-041]
Plate 5 (% inhibition) [5]: 30.36% | Plate 5 (% conversion) [5]: 25.98%

SMILES: CC[N+](C)(C)c1cccc(O)c1 [Edrophonium chloride]
Plate 2 (% conversion): 37.54% | inhibition at 20 µM [3]: -4.75%

SMILES: Cc1c2ccncc2c(C)c2c1[nH]c1ccccc12 [Ellipticine]
Plate 2 (% conversion): 45.95% | inhibition at 20 µM [4]: -29.9%

SMILES: CC[C@H]1CN2CCc3cc(OC)c(OC)cc3[C@@H]2C[C@@H]1C[C@H]1NCCc2cc(OC)c(OC)cc21 [Emetine dihydrochloride hydrate]
Plate 2 (% conversion): 37.46% | inhibition at 20 µM [3]: -4.49%

SMILES: Cc1cc(O)c2c(c1)C(=O)c1cc(O)cc(O)c1C2=O [Emodin]
Plate 2 (% conversion): 37.82% | inhibition at 20 µM [4]: -5.58%

SMILES: CC(C)C[C@H](NC(=O)[C@H](O)[C@H](N)Cc1ccccc1)C(=O)O [Epibestatin hydrochloride]
Plate 2 (% conversion) [1]: 35.33% | inhibition at 20 µM [4]: 1.86%

SMILES: COc1ccc2[n-]c([S@@+]([O-])Cc3ncc(C)c(OC)c3C)nc2c1.COc1ccc2[n-]c([S@@+]([O-])Cc3ncc(C)c(OC)c3C)nc2c1.O.O.[Mg+2] [Esomeprazole magnesium dihydrate]
Plate 2 (% conversion) [1]: 41.52% | Plate 2 (% inhibition) [2]: -16.62%

SMILES: C[C@]12CC[C@@H]3c4ccc(O)cc4CC[C@H]3[C@@H]1CCC2=O [Estrone]
Plate 2 (% conversion): 37.75% | inhibition at 20 µM [4]: -5.35%

SMILES: CCOC(=O)c1cnc2c(cnn2CC)c1NN=C(C)C [Etazolate hydrochloride]
Plate 2 (% conversion) [1]: 58.51% | inhibition at 20 µM [4]: -67.4%

SMILES: CCC1(C)CC(=O)NC1=O (stereo not drawn) [Ethosuximide]
Plate 2 (% conversion) [1]: 37.85% | inhibition at 20 µM [4]: -5.65%

SMILES: C=C1C[C@@H]2[C@H](CC[C@]3(C)C(=O)CC[C@@H]23)[C@@]2(C)C=CC(=O)C=C12 [Exemestane]
Plate 5 (% inhibition): 2.56% | Plate 5 (% conversion) [5]: 35.45%

SMILES: NC(=O)OCC(COC(N)=O)c1ccccc1 [Felbamate]
Plate 2 (% conversion) [1]: 34.68% | inhibition at 20 µM [4]: 3.82%

SMILES: Oc1ccc(C2CNCCc3c2cc(O)c(O)c3Cl)cc1 (stereo not drawn) [Fenoldopam bromide, reference compound]
inhibition at 20 µM (AspH activity, fixed compound concentration 20 μM, initial LOPAC screen, 0.5%v/v DMSO, read-out: Inhibition at 20 µM [%]): 98.3% | Plate 2 (% conversion) [1]: 3.05% | inhibition at 20 µM [4]: 98.3%

SMILES: CC(Cc1ccc(O)cc1)NCC(O)c1cc(O)cc(O)c1 (stereo not drawn) [Fenoterol hydrobromide]
Plate 2 (% conversion): 38.93% | inhibition at 20 µM [3]: -8.89%

SMILES: OCCN1CCN(CCCN2c3ccccc3Sc3ccc(C(F)(F)F)cc32)CC1 [Fluphenazine dihydrochloride]
Plate 2 (% conversion): 63.32% | inhibition at 20 µM [4]: -81.7%

SMILES: CC(C)C(=O)Nc1ccc([N+](=O)[O-])c(C(F)(F)F)c1 [Flutamide]
Plate 2 (% conversion) [1]: 40.61% | inhibition at 20 µM [4]: -13.9%

SMILES: O=CN(O)CCCP(=O)([O-])O.[Na+] [Fosmidomycin sodium salt hydrate]
Plate 3 (% conversion) [6]: 34.84%

Other lines, results leading:

inhibition at 20 µM [4]: -7.73%
SMILES: CN(C)CCOC(c1ccccc1)c1ccccc1 [Diphenhydramine hydrochloride]

Plate 2 (% conversion) [1]: 8.47% | inhibition at 20 µM [4]: 82.1%
SMILES: CC(CCc1ccc(O)cc1)NCCc1ccc(O)c(O)c1 (stereo not drawn) [Dobutamine hydrochloride]

inhibition at 20 µM [4]: -3.76% | Plate 5 (% inhibition) [5]: -1.04% | Plate 5 (% conversion) [5]: 36.67%
SMILES: CN(CCOc1ccc(NS(C)(=O)=O)cc1)CCc1ccc(NS(C)(=O)=O)cc1 [Dofetilide]

% conversion (substrate conversion): 36.52% | Plate 5 (% inhibition) [5]: 19.44% | Plate 5 (% conversion) [5]: 29.70%
SMILES: CCOC(=O)C1=C(O)C(=O)N(Cc2ccccc2)C1 [EBPC]

IC50 (50 nM His6-AspH315–758, 1.0 μM hFX-CP101–119, 3 μM 2OG, 2 μM Fe(II), 50 mM HEPES pH 7.5, 20 °C, mean ± SD, n = 2 (2,4-PDCA n = 10), read-out: IC50): 120 ± 10 nM
SMILES: O=c1c2ccccc2[se]n1-c1ccccc1 [Ebselen, ebselen, reference compound]

Plate 2 (% conversion) [1]: 34.90% | inhibition at 20 µM [4]: 3.14%
SMILES: CCC1(C2=NCCN2)Cc2ccccc2O1 (stereo not drawn) [Efaroxan hydrochloride]

Plate 5 (% inhibition) [5]: 0.46% | Plate 5 (% conversion) [5]: 36.16%
SMILES: CN1CCC[C@@H]1Cc1c[nH]c2ccc(CCS(=O)(=O)c3ccccc3)cc12 [Eletriptan]

Plate 2 (% conversion) [1]: 39.73% | inhibition at 20 µM [4]: -11.3%
SMILES: OC(CN1CCC(Cc2ccc(F)cc2)CC1)c1ccc(Cl)cc1 (stereo not drawn) [Eliprodil]

% conversion (substrate conversion): 37.37%
SMILES: C[C@H](N[C@@H](CCc1ccccc1)C(=O)O)C(=O)N1CCC[C@H]1C(=O)O.O.O [Enalaprilat dihydrate]

Plate 3 (% conversion) [6]: 33.79%
SMILES: CCCCc1ncc(/C=C(\Cc2cccs2)C(=O)O)n1Cc1ccc(C(=O)O)cc1 [Eprosartan mesylate]

Plate 2 (% conversion) [1]: 36.91% | inhibition at 20 µM [4]: -2.84%
SMILES: CCc1cccc2c3c([nH]c12)C(CC)(CC(=O)O)OCC3 (stereo not drawn) [Etodolac]

% inhibition: -8.79% | % conversion (substrate conversion): 39.47%
SMILES: Clc1ccc(N2CCN(Cc3cc4ccccn4n3)CC2)cc1 [FAUC 213]

Plate 2 (% conversion) [1]: 38.85% | Plate 2 (% inhibition) [2]: -8.64%
SMILES: COC(=O)c1c(C)[nH]c(C)c1C(=O)c1ccccc1Cc1ccccc1 [FPL 64176]

Plate 3 (% conversion) [6]: 36.37%
SMILES: CN1CC(=O)NC1=NC(=O)Nc1cccc(Cl)c1 [Fenobam]

Plate 2 (% conversion) [1]: 64.73% | inhibition at 20 µM [4]: -85.9%
SMILES: COc1cccc2c1[C@@H]1CN(CCCCn3c(=O)[nH]c4c(sc5ncc(-c6ccccc6)nc54)c3=O)C[C@@H]1CO2 [Fiduxosin hydrochloride]

Plate 2 (% conversion) [1]: 46.32% | inhibition at 20 µM [4]: -31%
SMILES: Fc1ccc(C(c2ccc(F)cc2)N2CCN(C/C=C/c3ccccc3)CC2)cc1 [Flunarizine dihydrochloride]

Plate 2 (% conversion) [1]: 43.85% | inhibition at 20 µM [4]: -23.6%
SMILES: CNCCC(Oc1ccc(C(F)(F)F)cc1)c1ccccc1 (stereo not drawn) [Fluoxetine hydrochloride]

Plate 2 (% conversion) [1]: 33.85% | inhibition at 20 µM [4]: 6.29%
SMILES: CCOC(=O)Nc1ccc(NCc2ccc(F)cc2)nc1N [Flupirtine maleate]

Plate 2 (% conversion) [1]: 58.99% | inhibition at 20 µM [4]: -68.8%
SMILES: O=C1NCN(c2ccccc2)C12CCN(CCCC(c1ccc(F)cc1)c1ccc(F)cc1)CC2 [Fluspirilene]
